For experiment [1], the system named is SARS-CoV-2 Wuhan Hu-1 spike. Description: microbe, parasite or virus in culture. It counts as cell-based. Conditions: Severe acute respiratory syndrome coronavirus 2, Caco-2, 48 h, read-out: IC50, SARS-CoV-2 spike-driven entry.
The test system of the next experiment is VSV-G glycoprotein. The format is cell-based.
A further experiment has as its system SARS-CoV-2 Omicron BA.5. It counts as cell-based.
A further experiment has as its system SARS-CoV-2 BA.5. The format is cell-based.
For experiment [2], the system named is SARS-CoV-2 Wuhan Hu-1 strain. To be noted: 48 h.
The test system of the next experiment is hCoV-NL63. To be noted: 48 h.
The test system of a further experiment is SARS-CoV spike. To be noted: 48 h.
For the next experiment, the system named is MERS-CoV spike. To be noted: 48 h.
The subject of experiment [3] is Influenza A virus (IAV) H1N1. To be noted: virus (IAV, 48 h).

Structures can show the parent of a compound that is named as a salt. Bridges are numbered along the chain shown (N, C = ends).

A word on the IC50: it is the concentration needed to halve the response being measured. Turning to `CN(C)C(=O)COC(=O)Cc1ccc(OC(=O)c2ccc(NC(=N)N)cc2)cc1` [Camostat mesylate], the IC50 in experiment [1] amounted to 70 nM.
With “VAACNLPIVRGPCRAFIQLWAFDAVKGKCVLFPYGGCQGNGNKFYSEKECREYCGVPGDGD (disulfide 4-54, 13-37, 29-50) [Trypstatin]”, the “entry of VSV-G bearing control pseudoparticles” value with VSV-G glycoprotein is on record as “did not affect entry”. Besides, the “viral titers two days post infection” value with SARS-CoV-2 Omicron BA.5 was “strongly reduced viral titers”. The “reduction of cumulative RNA copy production” value with SARS-CoV-2 BA.5 is on record as greater than 99.9%. In addition, in the experiment on SARS-CoV-2 BA.5, the “replication (RNA copies/ml in supernatants)” value is “almost entirely prevented replication”. Moreover, the IC50 in experiment [2] was 26 nM; with hCoV-NL63, 190 nM; in the experiment on SARS-CoV spike, 31 nM; with MERS-CoV spike, 78 nM; in [3] it was 222 nM.

The values are drawn from EP4545091A1 (priority 2023, dated 2025).
